How the values were obtained:
[1] = Plasma NEFA assay, female DIO Wistar rats (COMPOUND A, COMPOUND B); assay type: in vivo; conditions: obese female Wistar rats; 30 mg/kg po once daily for 28 days
Protocol: The experiment was performed on female Wistar rats (originally in the weight range 250-300 g). The rats were housed in pairs in polypropylene cages with solid floors and sawdust bedding at a temperature of 21±4°C and 55±20% humidity. Animals were maintained on a reverse phase light-dark cycle (lights off for 8 h from 09.30-17.30 h) during which time the room was illuminated by red light. Animals had free access to powdered high fat diet (VRF1 plus 20% lard), ground chocolate, ground peanuts and tap water at all times. The three different diets were contained in separate glass feeding jars with aluminum lids with a 3-4 cm hole cut in it to allow access to the food. […] Animals were then housed singly in polypropylene cages with wire grid floors to enable the food intake of each rat to be recorded. […] Animals were accustomed to these new conditions (individual housing and the wire-grid floor cages) for at least 14 days before the start of the baseline readings. […]
Non-esterified (or free) fatty acids (NEFA) were determined by modification of a commercial clinical analyser assay kit (Wako NEFA C ACS-ACOD method) to a 96-well format. […] After exactly 10 minutes, 150 µl of reagent B was added and the plate incubated for a further 10 minutes after which optical density at 540 nm was determined using a Molecular Devices VERSAmax tunable microplate reader. […]

[2] = Plasma leptin assay, female DIO Wistar rats (COMPOUND A, COMPOUND B); assay type: in vivo; conditions: obese female Wistar rats
Protocol: The experiment was performed on female Wistar rats (originally in the weight range 250-300 g). The rats were housed in pairs in polypropylene cages with solid floors and sawdust bedding at a temperature of 21±4°C and 55±20% humidity. Animals were maintained on a reverse phase light-dark cycle (lights off for 8 h from 09.30-17.30 h) during which time the room was illuminated by red light. Animals had free access to powdered high fat diet (VRF1 plus 20% lard), ground chocolate, ground peanuts and tap water at all times. The three different diets were contained in separate glass feeding jars with aluminum lids with a 3-4 cm hole cut in it to allow access to the food. Animals were housed in pairs for twelve weeks for the induction of obesity. Animals were then housed singly in polypropylene cages with wire grid floors to enable the food intake of each rat to be recorded. […] Animals were accustomed to these new conditions (individual housing and the wire-grid floor cages) for at least 14 days before the start of the baseline readings. […]
Plasma leptin concentration was determined using Assay Designs rat leptin enzyme immunometric assay kits (Cat No. 900-015) according to the manufacturer's regular protocol. […]
Optical density at 450 nm was determined using a Molecular Devices VERSAmax tunable microplate reader and readings transferred to GraphPad Prism. […]

[3] = Plasma glycerol and triacylglycerol assay, female DIO Wistar rats (COMPOUND A, COMPOUND B); assay type: in vivo; conditions: obese female Wistar rats; for reduction of plasma concentrations of triacylglycerol / reduction of plasma glycerol levels: 30 mg/kg po once daily for 28 days, vs vehicle
Protocol: (§1) The experiment was performed on female Wistar rats (originally in the weight range 250-300 g). The rats were housed in pairs in polypropylene cages with solid floors and sawdust bedding at a temperature of 21±4°C and 55±20% humidity. Animals were maintained on a reverse phase light-dark cycle (lights off for 8 h from 09.30-17.30 h) during which time the room was illuminated by red light. Animals had free access to powdered high fat diet (VRF1 plus 20% lard), ground chocolate, ground peanuts and tap water at all times. The three different diets were contained in separate glass feeding jars with aluminum lids with a 3-4 cm hole cut in it to allow access to the food. Animals were housed in pairs for twelve weeks for the induction of obesity. Animals were then housed singly in polypropylene cages with wire grid floors to enable the food intake of each rat to be recorded. Polypropylene trays with cage pads were placed beneath each cage to detect any food spillage. Animals were accustomed to these new conditions (individual housing and the wire-grid floor cages) for at least 14 days before the start of the baseline readings.
(§2) Approximately a week before the start of the study, animals were weighed (to the nearest 0.1 g using an electronic top-pan balance) and allocated into 3 weight-matched treatment groups, each containing 9-10 animals. Following a 7 day baseline run-in period, during which the animals were dosed by the appropriate route (eg orally) once a day with vehicle (0.5% hydroxy-propyl-methylcellulose [HPMC]; 1 ml/kg) or the test drug, ie COMPOUND A (10mg and 30 mg/kg po) and COMPOUND B (10 mg and 30 mg/kg po) once daily for 28 days.
Terminal blood samples via cardiac puncture were taken from the animals immediately after death into Sarstedt 4.5 ml lithium-heparin tubes (Cat No. 32.331). Tubes were then centrifuged at 1,500 g for 5 minutes at 4°C and the plasma removed and immediately frozen on dry ice (as 3 aliquots per sample in sealed Eppendorf tubes). Plasma samples were stored at -75°C until required for analysis. All determinations were performed on plasma samples that had been thawed only once.
Plasma triacylglycerol was determined by modification of a discrete assay kit (Sigma Triglyceride determination kit, Cat No. TR0100) to a 96-well format. The kit actually determines liberated glycerol following enzymic hydrolysis of triacylglycerol to free fatty acids and glycerol (1 mole glycerol per mole of triacylglycerol). For this reason, correction for the glycerol concentration originally present in the plasma is required. Plasma samples were, therefore, assayed in the absence (free plasma glycerol) or presence (total triacylglycerol) of lipoprotein lipase. Subtraction of free glycerol from total triacylglycerol concentration then derives the true triacylglycerol concentration.
A 2.5 mg/ml triolein equivalent glycerol standard was obtained from Sigma. The supplied Sigma mM conversion factor for this batch was 1.13 (ie 2.83 mM glycerol). A 10 mg/ml glycerol stock solution was prepared in saline and then diluted in saline to create a series of standard concentrations from 0.218 to 4.34 mM. Standards and plasma samples (undiluted) were pipetted into the 96-well plates as 10 µl additions in duplicate. Assay plates and reagents were preheated at 37°C and the reaction started by adding 200 µl of either the glycerol or total triacylglycerol reagent (reconstituted as per manufacturer's protocol) followed by incubation at 37°C for 5 minutes after which optical density at 540 nm was determined using a Molecular Devices VERSAmax tunable microplate reader. Optical density readings were then transferred to GraphPad Prism and unknown values extrapolated from a linear regression fit to the standard curve. The assay was linear up to the highest glycerol standard employed (4.34 mM). Subtraction of the glycerol concentration in the plasma samples from the total triacylglycerol concentration derived the true triacylglycerol concentration.

[4] = Feeding study in female DIO Wistar rats (COMPOUND A, COMPOUND B): body weight and food intake; assay type: in vivo; conditions: dietary-induced obese female Wistar rats; 10 mg/kg po once daily; end of the 28 day drug treatment period
Protocol: as §1
Approximately a week before the start of the study, animals were weighed (to the nearest 0.1 g using an electronic top-pan balance) and allocated into 3 weight-matched treatment groups, each containing 9-10 animals. […]
Food intake and body weight were measured once daily. […]

[5] = olanzapine treatment of patients; literature; cited from earlier work
[6] = Plasma glycerol and triacylglycerol assay, female DIO Wistar rats (COMPOUND C); assay type: in vivo; conditions: 30 mg/kg po once daily for 28 days
Protocol: as §1, with “250-300g).” for “250-300 g). The rats were housed in pairs in polypropylene cages with solid floors and sawdust bedding at a temperature of 21±4°C and 55±20% humidity.”, “aluminium” for “aluminum”, “readings. […]” for “readings.”
Plasma triacylglycerol was determined by modification of a discrete assay kit (Sigma Triglyceride determination kit, Cat No. TR0100) to a 96-well format. […]
A 2.5 mg/ml triolein equivalent glycerol standard was obtained from Sigma. […] Optical density readings were then transferred to GraphPad Prism and unknown values extrapolated from a linear regression fit to the standard curve. […]

[7] = Carcass composition (water, fat, protein, ash), female DIO Wistar rats (COMPOUND C); assay type: in vivo; conditions: 30 mg/kg po once daily for 28 days
Protocol: as §1, with “250-300g).” for “250-300 g). The rats were housed in pairs in polypropylene cages with solid floors and sawdust bedding at a temperature of 21±4°C and 55±20% humidity.”, “aluminium” for “aluminum”
as §2, with “2” for “3”, “10” for “9-10”, “(1% methylcellulose;” for “(0.5% hydroxy-propyl-methylcellulose [HPMC];”, “C (30” for “A (10mg and 30 mg/kg po) and COMPOUND B (10 mg and 30”
Total ether-extractable fat in the freeze-dried samples was estimated by the Soxhlet principle using a Foss Soxtec HT2 system. The protocol employed was based on the manufacturer's recommendations for meat samples, although freeze-dried samples obviated the necessity for either a fat hydrolysis step or mixing the sample with sand to ensure efficient extraction.
Samples of approximately 1 g were accurately weighed into 26 mm x 60 mm cellulose extraction thimbles which were then plugged with approximately 0.8 g cotton wool. Sample fat was extracted into pre-weighed (including a few boiling chips) standard metal extraction cups using 70 ml of petroleum ether at 40-60°C, a circulator temperature of 115°C and a cooling flow rate of 2 l/min. A boiling stage of 25 min was employed, followed by a 40 min wash stage. A 10 min drying stage sufficed to remove ether from the extraction cups.
Percentage fat in the freeze-dried sample was calculated as follows: % fat = [100 × (final cup weight-initial cup weight)]/sample weight [formula]
Percentage fat in the original sample was calculated using the % water as follows: % fat in original sample = % fat × [(100-%water)/100] [formula]
Total protein in the freeze-dried samples was estimated using the Kjeldahl principle. A micro-Kjeldahl procedure was performed using a Foss 2012 digestion block and a Foss 2200 distilling unit. The protocol used was based on the manufacturer's recommendations for meat samples.
Approximately 0.3 g of freeze-dried sample was accurately weighed into 100 ml digestion tubes (Foss UK Ltd) in racks of 12 tubes. Each rack included at least one blank tube to determine a reagent blank. To each tube was added two Kjeltabs CQ and one Antifoam S tablet followed by 10 ml of 98% sulphuric acid. Samples were digested at 420°C for 1 h to convert protein into ammonium sulphate. Once tubes had cooled, free ammonia was liberated by the addition of an excess of 40% NaOH and steam distilled into 30 ml of 4% boric acid indicator solution. Ammonia was then determined by titration against volumetric grade 0.1 M HCl using a Brand 25 ml digital burette. Nitrogen and protein content of the samples were calculated as follows: % nitrogen = [(sample titration-blank titration) × 0.1401]/sample weight(g)%protein = % nitrogen × 6.25 [formula]
Total ash in the freeze-dried samples was estimated by determining the non-combustible ash remaining after firing samples at high temperatures using a Carbolite OAF 11/1 muffle furnace. […]

[8] = Plasma leptin assay, female DIO Wistar rats (COMPOUND C); assay type: in vivo; conditions: 30 mg/kg po once daily for 28 days
Protocol: as §1, with “250-300g).” for “250-300 g). The rats were housed in pairs in polypropylene cages with solid floors and sawdust bedding at a temperature of 21±4°C and 55±20% humidity.”, “aluminium” for “aluminum”, “readings. […]” for “readings.”
Plasma leptin concentration was determined using Assay Designs rat leptin enzyme immunometric assay kits (Cat No. 900-015) according to the manufacturer's regular protocol. […] Optical density at 450 nm was determined using a Molecular Devices VERSAmax tunable microplate reader and readings transferred to GraphPad Prism. […]

[9] = 10 mg/kg po once daily for 28 days

O=C(NN1CCCCC1)C1=NN(c2ccc(Cl)cc2Cl)[C@H](c2ccc(Cl)cc2)C1 [COMPOUND B, (S)-N-piperidinyl-5-(4-chlorophenyl)-1-(2,4-dichlorophenyl)-4,5-dihydro-1H-pyrazole-3-carboxamide]
decrease of plasma NEFA levels compared to the vehicle-treated control group [1]: 24.4% | decrease of plasma leptin levels compared to the vehicle-treated control group [2, 9]: 13.7% | decrease of plasma leptin levels compared to the vehicle-treated control group ([2]; 30 mg/kg po once daily for 28 days): 26.2% | reduction of plasma concentrations of triacylglycerol [3]: 52.1% | reduction of plasma glycerol levels [3]: 38.9% | body weights lower than those of the vehicle-treated controls [4]: 4.0%

O=C(NN1CCCCC1)C1=NN(c2ccc(Cl)cc2Cl)[C@@H](c2ccc(Cl)cc2)C1 [COMPOUND A, (R)-N-piperidinyl-5-(4-chlorophenyl)-1-(2,4-dichlorophenyl)-4,5-dihydro-1H-pyrazole-3-carboxamide]
plasma glycerol levels, effect vs vehicle [3, 9]: no significant effect | plasma triacylglycerol concentrations, effect vs vehicle [3, 9]: no significant effect | reduction of plasma concentrations of triacylglycerol [3]: 42.0% | reduction of plasma glycerol levels [3]: 33.6%

Cc1cc2c(s1)Nc1ccccc1N=C2N1CCN(C)CC1 [olanzapine]
mean increase in body weight [5]: ~ 5 kg

O=C(NN1CCCCC1)C1=NN(c2ccc(Cl)cc2Cl)C(c2ccc(Cl)cc2)C1 (racemic) [COMPOUND C, (rac)-N-piperidinyl-5-(4-chlorophenyl)-1-(2,4-dichlorophenyl)-4,5-dihydro-1H-pyrazole-3-carboxamide]
reduction of plasma glycerol levels compared to the vehicle-treated control group [6]: 23.4% | reduction of triacylglycerol levels compared to the vehicle-treated control group [6]: 37.2% | decrease in absolute body fat compared to the vehicle-treated control group [7]: 57.7 g | decrease in body fat as share of the total weight-loss observed [7]: 79.3% | decrease in fat mass compared to the vehicle-treated control group [7]: 36.9% | reduction of total carcass water compared to the vehicle-treated control [7]: 11.8 g | percentage ash content ([7]; vehicle 2.77%): 3.26% | percentage protein content ([7]; vehicle 15.5%): 17.1% | fat content as a percentage of carcass weight ([7]; vehicle 31.9%): 24.2% | percentage water content of the carcasses ([7]; vehicle 49.0%): 54.3% | mean body fat mass ([7]; vehicle 156.3 g): 98.6 g | reduction of final carcass weight ([7]; vs vehicle (473.0 g)): 72.8 g | plasma leptin concentrations, change compared to the vehicle-treated control group [8]: -48.2%

— EP1946778A1, “Active substance combination for the treatment of diabetes” (Laboratorios del Dr. Esteve S.A., priority 2007, dated 2008)
